Data reported in patent publication US20260174878A1, “IRAK4 DEGRADATION AGENT AND USE THEREOF” (LEADINGTAC PHARMACEUTICAL (SHAOXING) CO., LTD., priority 2022, published 2026).

Assays:
[1] = test system: imiquimod-induced mouse psoriasis model; assay: Imiquimod-induced C57 mouse psoriasis model; format: in vivo, C57BL/6 mice; details: p<0.0001
Experimental: Then 10% of the total volume of Solutol was added, and the mixture was subjected to vortex ultrasonic treatment until clear. […] The compound was formulated fresh for each use.
B. Imiquimod sensitization and drug intervention on C57BL/6J mice were conducted, with specific administration times shown in Table 6. • i. On Day 1, the backs of the mice were shaved, ensuring consistent area using a mold, approximately 2 cm×3 cm, and 60 mice were selected; • ii. the mice were randomly divided into 6 groups based on body weight and right ear thickness, with 10 mice per group; • iii. 6 to induce psoriasis symptoms in the model mice, imiquimod was applied on the back skin and right ear of the mice in groups G2-G6 for sensitization at noon on Day 0, and this continued for 7 days. • iv. […] Endpoint sampling of the mice was performed on Day 5 or Day 7.
• Clinical score and right ear thickness.

[2] = molecular target: T1, IRAK4 protein in normal human PBMCs (Homo sapiens, UniProt Q9NWZ3); assay: Degradation of IRAK4 protein in normal human PBMCs (AlphaLISA); format: cell-based; details: 24 h incubation
T1 construct: host or cells: normal human PBMCs
T1 sequence (Q9NWZ3 1-460): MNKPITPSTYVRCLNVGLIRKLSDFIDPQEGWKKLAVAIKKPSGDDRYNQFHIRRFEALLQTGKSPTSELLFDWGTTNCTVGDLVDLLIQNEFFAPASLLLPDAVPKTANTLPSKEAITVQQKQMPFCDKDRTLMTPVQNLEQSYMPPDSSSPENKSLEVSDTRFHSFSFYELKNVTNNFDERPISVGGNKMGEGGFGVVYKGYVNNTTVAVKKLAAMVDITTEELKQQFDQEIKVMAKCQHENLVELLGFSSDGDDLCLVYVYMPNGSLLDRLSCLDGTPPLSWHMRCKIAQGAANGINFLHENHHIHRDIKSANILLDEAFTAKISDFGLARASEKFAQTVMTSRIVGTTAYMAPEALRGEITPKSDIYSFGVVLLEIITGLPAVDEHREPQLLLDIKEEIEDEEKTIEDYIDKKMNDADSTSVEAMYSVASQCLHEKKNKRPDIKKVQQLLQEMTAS
Procedure, shortened: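 Cryopreserved normal human PBMCs treated with compound at 0.01-3000 nM (0.25% DMSO) for 24 h at 37 °C. IRAK4 in lysates quantified by AlphaLISA against a standard curve and normalized to BCA total protein. Degradation versus control fitted to give DC50 and Dmax.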

IRAK4 kinase = molecular target: T2, IRAK4 kinase (Homo sapiens, UniProt Q9NWZ3); assay: IRAK4 kinase activity test (KinEASE-STK S1 HTRF kit); format: biochemical; details: IRAK4 kinase 2.5 nM, 7 μM adenosine triphosphate, 37° C. 120 min
T2 construct: purchased Carna
T2 sequence (Q9NWZ3 1-460): T1 sequence (Q9NWZ3 1-460)
Experimental: Then 2.5 nM IRAK4 kinase (Carna), 1 μM biotinylated polypeptide substrate (Cisbio), and 7 μM adenosine triphosphate (Sigma-Aldrich) were sequentially added, and the mixtures were incubated at 37° C. for 120 min. Subsequently, an anti-phosphoserine/threonine antibody (Cisbio) conjugated with a europium element compound and streptavidin conjugated with a modified XL665 (Cisbio) were added to the reaction system to stop the reaction. After 1 h of incubation at room temperature, the fluorescence intensity of each well was measured at the excitation wavelength of 337 nm and the emission wavelengths of 620 nm and 665 nm with a microplate reader EnVision (PerkinElmer) in the HTRF mode, and Ratio values were calculated using the formula: Ratio=(665 nm/620 nm)×10^4. The inhibition rates of the compounds at each concentration were calculated by comparison with the fluorescence intensity ratio of the control group. Then non-linear curve fittings for logarithmic concentration-inhibition rate were performed using GraphPad Prism 7, and the IC50 values of the compounds were obtained.

CC(=O)OCC(=O)[C@@]1(O)[C@H](C)C[C@H]2[C@@H]3CCC4=CC(=O)C=C[C@]4(C)[C@@]3(F)[C@@H](O)C[C@@]21C [dexamethasone, Dexamethasone acetate] was tested, and the “inhibition rate relative to vehicle control (AUC of clinical score)” value ([1]; 5 mpk p.o. QD) was 20.7%.

For C=C1/C(=C\C=C2/CCC[C@]3(C)[C@@H]([C@H](C)CCCC(C)(C)O)CC[C@@H]23)C[C@@H](O)C[C@@H]1O [calcitriol], the “inhibition rate relative to vehicle control (AUC of clinical score)” value ([1]; ointment 75 mg back + 24 mg right ear/mouse topical QD) was 44.5%.

With O=C1CCN(c2cc(C(=O)N3CCC4(CCN(C[C@H]5CC[C@H](n6cc(NC(=O)c7cnn8ccc(N9CC%10CCC(C9)O%10)nc78)c(C(F)F)n6)CC5)CC4)CC3)ccc2Cl)C(=O)N1 [Example 11, 5-(8-oxa-3-azabicyclo[3.2.1]octan-3-yl)-N-(1-((1R,4R)-4-((9-(4-chloro-3-(2,4-dioxotetrahydropyrimidin-1(2H)-yl)benzoyl)-3,9-diazaspiro[5.5]undecan-3-yl)methyl)cyclohexyl)-3-(difluoromethyl)-1H-pyrazol-4-yl)pyrazolo[1,5-a]pyrimidine-3-carboxamide] the DC50 [2] was 0.88 nM, the Dmax [2] was 97.4% and the IC50 (IRAK4 kinase) was 7.74 nM.
